In the supplement of paper PMC10307832:

What was measured:
Test in all cases: relative viability (nuclei count vs DMSO), 5 days (fraction); higher = more cells survive
TPCA-1 + Decitabine = compound: C1=CC(=CC=C1C2=CC(=C(S2)NC(=O)N)C(=O)N)F [TPCA-1] + Nc1ncn([C@H]2C[C@H](O)[C@@H](CO)O2)c(=O)n1 [Decitabine] (partner 2 µM)
Summary of the method: (§1)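 Relative viability is defined as nuclei in treated wells over nuclei in vehicle wells. Duplicate plates were run and medians reported. Lung cancer cell lines in 1536-well plates were dosed by pin tool one day after seeding, with one drug or with a fixed anchor-drug dose plus five library-drug doses (not always all listed) in √10 steps, and nuclei were counted after 5 days.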

[1] = compound: C[C@]12O[C@H](C[C@]1(O)CO)n1c3ccccc3c3c4c(c5c6ccccc6n2c5c31)CNC4=O [Lestaurtinib] + CS(=O)(=O)N1CCN(Cc2cc3nc(-c4cccc5[nH]ncc45)nc(N4CCOCC4)c3s2)CC1 [Pictilisib] (partner 1 µM)
Summary of the method: as §1

[2] = compound: C1/C(=C\C2=CC=CS2)/C(=O)/C(=C/C3=CC=CS3)/C1 + Cc1nc(NC(=O)N2CCC[C@H]2C(N)=O)sc1-c1ccnc(C(C)(C)C(F)(F)F)c1 [Alpelisib] (partner 2 µM)
Summary of the method: as §1

[3] = compound: C[C@]12O[C@H](C[C@]1(O)CO)n1c3ccccc3c3c4c(c5c6ccccc6n2c5c31)CNC4=O [Lestaurtinib] + N=C(N)NC(=N)NCCc1ccccc1 [Phenformin] (partner 250 µM)
Summary of the method: as §1

Row | Cell Line | relative viability (TPCA-1 + Decitabine; first compound 0.04 µM) | relative viability (TPCA-1 + Decitabine; first compound 0.4 µM) | relative viability (TPCA-1 + Decitabine; first compound 1.265 µM) | relative viability (TPCA-1 + Decitabine; first compound 4 µM) | relative viability ([1]; first compound 0.005 µM) | relative viability ([1]; first compound 0.01581 µM) | relative viability ([1]; first compound 0.05 µM) | relative viability ([1]; first compound 0.1581 µM) | relative viability ([1]; first compound 0.5 µM) | relative viability ([2]; first compound 0.2 µM) | relative viability ([2]; first compound 0.6325 µM) | relative viability ([2]; first compound 2 µM) | relative viability ([2]; first compound 6.325 µM) | relative viability ([2]; first compound 20 µM) | relative viability ([3]; first compound 0.005 µM) | relative viability ([3]; first compound 0.01581 µM) | relative viability ([3]; first compound 0.05 µM) | relative viability ([3]; first compound 0.1581 µM) | relative viability ([3]; first compound 0.5 µM) | relative viability (TPCA-1 + Decitabine; first compound 0.1265 µM)
1 | EKVX | 0.366 | 0.383 | 0.316 | 0.345 | 0.518 | 0.461 | 0.442 | 0.571 | 0.387 | 0.878 | 0.85 | 0.992 | 0.626 | 0.855 | 0.207 | 0.245 | 0.231 | 0.244 | 0.239 | –
2 | ABC-1 | 1.49 | 1.16 | 1.09 | 1.27 | 0.676 | 0.747 | 0.4 | 0.596 | 0.226 | 1.06 | 1.17 | 1.11 | 0.881 | 0.739 | 0.251 | 0.252 | 0.243 | 0.199 | 0.166 | 1.07
3 | NCI-H520 | 0.522 | 0.573 | 0.516 | 0.331 | 0.279 | 0.319 | 0.211 | 0.228 | 0.18 | 0.927 | 0.847 | 0.928 | 0.82 | 0.835 | 0.648 | 0.744 | 0.44 | 0.313 | 0.2 | 0.35
4 | LCLC-97TM1 | 0.274 | 0.214 | 0.247 | 0.243 | 0.197 | 0.163 | 0.138 | 0.139 | 0.125 | 0.255 | 0.225 | 0.272 | 0.212 | 0.248 | 0.47 | 0.442 | 0.403 | 0.325 | 0.2 | 0.23
5 | NCI-H2170 | 0.493 | 0.444 | 0.453 | 0.385 | 0.285 | 0.257 | 0.304 | 0.293 | 0.223 | 0.888 | 0.775 | 0.758 | 0.638 | 0.749 | 0.41 | 0.424 | 0.42 | 0.32 | 0.244 | 0.433
6 | NCI-H1793 | 0.495 | 0.492 | 0.451 | 0.384 | 0.319 | 0.224 | 0.235 | 0.34 | 0.263 | 0.64 | 0.656 | 0.763 | 0.696 | 0.559 | 0.353 | 0.447 | 0.296 | 0.436 | 0.3 | 0.429
7 | NCI-H3122 | 0.424 | 0.424 | 0.496 | 0.455 | 0.671 | 0.798 | 0.628 | 0.45 | 0.423 | 0.887 | 0.785 | 0.876 | 0.488 | 0.891 | 0.365 | 0.431 | 0.372 | 0.363 | 0.175 | 0.404
8 | PC-14 | 0.265 | 0.231 | 0.255 | 0.323 | 0.639 | 0.49 | 0.283 | 0.254 | 0.171 | 0.95 | 0.898 | 0.889 | 0.676 | 0.995 | 0.445 | 0.871 | 0.633 | 0.353 | 0.106 | 0.24
9 | EPLC-272H | 0.458 | 0.41 | 0.372 | 0.382 | 0.292 | 0.318 | 0.212 | 0.286 | 0.305 | 1.1 | 0.881 | 1.05 | 0.831 | 0.841 | 0.273 | 0.306 | 0.281 | 0.225 | 0.125 | 0.318
10 | A-427 | 0.62 | 0.591 | 0.564 | 0.504 | 0.769 | 0.668 | 0.461 | 0.239 | 0.101 | 1.12 | 1.06 | 1.18 | 1.04 | 1.01 | 0.339 | 0.3 | 0.23 | 0.225 | 0.149 | 0.535
